The target of assay [1] is T1, CD79b (Homo sapiens, UniProt P40259).
T1 construct: endogenous in cells; host or cells: Ramos
T1 sequence (P40259 29-229): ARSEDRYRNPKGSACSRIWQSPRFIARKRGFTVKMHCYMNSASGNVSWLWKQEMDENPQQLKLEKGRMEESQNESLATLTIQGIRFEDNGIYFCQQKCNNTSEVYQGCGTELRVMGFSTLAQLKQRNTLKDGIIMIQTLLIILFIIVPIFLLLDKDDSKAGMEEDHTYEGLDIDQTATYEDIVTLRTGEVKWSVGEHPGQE
T1 sequence (P11912 33-226 partner): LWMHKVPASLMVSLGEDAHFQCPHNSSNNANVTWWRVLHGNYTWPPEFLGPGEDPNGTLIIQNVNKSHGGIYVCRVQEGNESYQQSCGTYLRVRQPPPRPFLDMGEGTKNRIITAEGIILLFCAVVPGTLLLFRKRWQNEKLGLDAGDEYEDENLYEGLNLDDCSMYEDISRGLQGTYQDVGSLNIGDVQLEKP
The assay is described as follows: Binding of conjugate and parent antibody to cancer cells (flow cytometry), CD79b / Ramos. The note with it: 1 hour at 4° C.; conjugate at DARs 2.0, 3.2 and 4.6.

Assay [2] deals with MV-4-11 human acute myeloid leukemia cells. The assay is described as follows: In vivo MV-4-11 subcutaneous myeloid leukemia tumor model. Also noted: species or system Athymic Nude mice. The note with it: 0.4 mg/kg IP once a day for 14 days (equivalent to conjugated payload dose). The protocol: Subcutaneous tumor model—MV-4-11 human acute myeloid leukemia cells (1×10^7 cells in 0.1 mL) were subcutaneously inoculated into the right flank of female Athymic Nude mice. Mice were treated with each test article when the tumor size reached 100-150 mm^3. 10 mg/kg of CD33-D antibody-Compound (XL) conjugate (in 20 mM succinate, 8% sucrose, 0.01% Tween-20 pH 5.5) was delivered by intravenous administration (IV) once a week for 2 weeks. 0.4 mg/kg of Compound (XL) (in 5% NMP, 45% PEG300, 20 mM NaPi pH 6.5) and 10 mg/kg of ARV-825 (as described in Liu, et al. Chemistry & Biology 2015, volume 22, pages 755-763) in 1.5 mg/mL, 5% Kolliphor, HS15 WFI Buffer was treated by intraperitoneal administration (IP) once a day for 14 days. Tumor size and mouse body weight were measured twice per week. Subcutaneous tumor volume (mm^3) was calculated with the following formula: (a×b^2/2) where ‘b’ is the smallest diameter and ‘a’ is the largest diameter. The study endpoint is that individual mice were euthanized following respective tumor volume ≥1,000 mm^3 or day 60, whichever came first.

The next assay relates to MV-4-11 cells. The assay is described as follows: In vitro MV-4-11 antiproliferation assay (alamarBlue). The class given is cell-based, human. The note with it: 4 days, test article alone. The procedure: MV-4-11 cells were exposed to varying concentrations of conjugates or antibodies for 4 days with/without 1 μM of the blocking antibody Gemtuzumab or Trastuzumab. Viability of the cells was determined by alamarBlue. The antiproliferative activity of the gemtuzumab conjugate of Compound (XL) and the unconjuaged BRD4 degrader small molecule Compound 40-3 are showin in FIG. 13. […] The antibodies alone were not active up to […].
For orientation: Alamar Blue is a resazurin reagent that responds to reducing activity.

The target in the next assay is T2, BRD4 (Homo sapiens, UniProt O60885).
T2 construct: endogenous in cells; host or cells: MV4-11
Nature of the assay: In vitro BRD4 protein degradation assay (Western blot). The class given is cell-based. Particulars: 10 nM, MV4-11 cells, overnight. The protocol: The ability of the claimed conjugates to degrade BRD4 was measured using an in vitro degradation assay. MV4-11 cells were incubated with test article overnight. Protein was loaded to 4-12% NuPAGE Bis-Tris gel. Western blot with rabbit anti-BRD4 Ab (Cell Signaling #13440) was performed at 1:1,000 dilution and re-blotting with β-actin HRP (Cell Signaling #5125) was performed at 1:1,000. The degradation activity of the gemtuzumab conjugate Compound (XL) and the unconjuaged BRD4 degrader small molecule Compound 40-3 are shown in FIG. 14.
A general note: A western blot detects proteins with antibodies after separation by electrophoresis.

The target in assay [3] is T3, CD79b (UniProt P40259 29-229, limits assumed).
T3 construct: whole, on cells; Endogenous antigen on the cell line
T3 sequence (looked up): T1 sequence (P40259 29-229)
The assay is described as follows: flow cytometry binding to Ramos cells (procedure of Example 10). In general terms: In flow cytometry, cells or beads pass a laser one at a time.

As to “Synagis N297A: non-binding control antibody”, the “CD79b binding on Ramos cells by flow cytometry (in words)” value with CD79b [1] was “relatively negligible signal intensity”. Regarding `Cn1cc(-c2cc(NC(=O)CCCCC(=O)NCCCCNc3cccc4c3C(=O)N(C3CCC(=O)NC3=O)C4=O)ccc2Oc2ccc(F)cc2F)c2cc[nH]c2c1=O` (centres unmarked) [Compound 40-3, N′-[4-(2,4-difluorophenoxy)-3-{6-methyl-7-oxo-1H-pyrrolo[2,3-c]pyridin-4-yl}phenyl]-N-(4-{[2-(2,6-dioxopiperidin-3-yl)-1,3-dioxoisoindol-4-yl]amino}butyl)hexanediamide, reference compound], in assay [2], the “effect on MV-4-11 tumor growth” value was “inactive”. In addition, the “antiproliferative activity against MV-4-11 cells (in words)” value with MV-4-11 cells was “highly active”. Also, the “reduction in BRD4 protein band intensity” value on BRD4 was over 90%.

B1: CD79b-A antibody (antibody, V domains shown)
VH: EVQLVESGGGLVQPGGSLRLSCAASGYTFSSYWIEWVRQAPGKGLEWIGEILPGGGDTNYNEIFKGRATFSADTSKNTAYLQMNSLRAEDTAVYYCTRRVPIRLDYWGQGTLVTVSS
VL: DIQLTQSPSSLSASVGDRVTITCKASQSVDYEGDSFLNWYQQKPGKAPKLLIYAASNLESGVPSRFSGSGSGTDFTLTISSLQPEDFATYYCQQSNEDPLTFGQGTKVEIK
notes: also called Polatuzumab
The EC50 is the concentration needed to bring the measured effect to its halfway point. Low readings indicate a more potent agent, high ones a less potent agent. In turn, B1 displayed an EC50 with CD79b [3] of 0.74 nM.

For the origin of these results see US20250144230A1, “LINKERS FOR USE IN ANTIBODY DRUG CONJUGATES” (Orum Therapeutics, Inc., priority 2021, published 2025).
